Experimental data taken from article PMC6685790 (Nature structural & molecular biology, 2008).

What was measured:
Assay in all cases: Whole-cell recording of substituted GlyR in HEK cells
Type in all cases: cell-based
GlyR α1^D114G = GlyR α1^D114G (Homo sapiens, UniProt P23415, D142G); details: α1^D114G vs WT
GlyR α1^F100Y = GlyR α1^F100Y (Homo sapiens, UniProt P23415, F128Y); details: same cell
GlyR α1^L134A, D97A = GlyR α1^L134A, D97A (Homo sapiens, UniProt P23415, D125A/L162A)
GlyR α1^L134A, D97A, sequence (P23415 29-457 D125A/L162A): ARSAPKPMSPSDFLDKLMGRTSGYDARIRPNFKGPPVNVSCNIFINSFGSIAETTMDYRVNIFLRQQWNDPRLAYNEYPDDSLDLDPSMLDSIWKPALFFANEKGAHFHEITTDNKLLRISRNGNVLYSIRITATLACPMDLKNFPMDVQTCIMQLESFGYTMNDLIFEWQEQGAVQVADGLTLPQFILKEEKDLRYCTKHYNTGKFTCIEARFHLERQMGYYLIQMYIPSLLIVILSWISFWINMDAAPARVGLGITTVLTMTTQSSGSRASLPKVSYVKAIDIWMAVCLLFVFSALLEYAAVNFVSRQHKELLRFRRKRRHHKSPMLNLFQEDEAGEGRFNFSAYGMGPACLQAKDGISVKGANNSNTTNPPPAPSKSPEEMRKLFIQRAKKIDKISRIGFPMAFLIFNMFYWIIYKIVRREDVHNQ

GlyR α1^F100Y, sequence (P23415 29-457 F128Y): as the sequence (P23415 29-457 D125A/L162A) above, with A97D, F100Y, A134L counted along it
GlyR α1^D114G, sequence (P23415 29-457 D142G): as the sequence (P23415 29-457 D125A/L162A) above, with A97D, D114G, A134L counted along it

| Increase in glycine sensitivity compared to WT (GlyR α1^D114G) | Maximal Zn^2+ (1 mM)-activated current normalised to glycine Imax (10 mM) (GlyR α1^F100Y) | Zn^2+ activation (GlyR α1^L134A, D97A) | SMILES |
| --- | --- | --- | --- |
| 3 fold |  |  | NCC(=O)O [Glycine, glycine] |
|  | < 2 % Gly Imax | no detectable activation | [Zn+2] [Zn^2+] |
